Reference: patent US20100234226A1, “HERBICIDE COMBINATION COMPRISING DIMETHOXYTRIAZINYL-SUBSTITUTED DIFLUOROMETHANESULFONYLANILIDES” (BAYER CROPSCIENCE AG, priority 2008, published 2010)
Like-named read-outs stand apart in the source and are kept apart here.

Tests used:
Assay type in all cases: in vivo
Zea mays (ZEAMX) = assay: Post-emergence action against weeds, greenhouse pot test, Zea mays; conditions: for inhibition at 200 g/ha: 200 g of ai/ha
Protocol: (§1) Seeds or rhizome pieces of mono- and dicotyledonous harmful and useful plants were placed in peat pots (diameter 4 cm) filled with sandy loam and then covered with soil. The pots were kept in a greenhouse under optimum conditions. In addition, harmful plants encountered in paddy rice cultivation were cultivated in pots with a water level 2 cm above the soil surface.
(§2) About three weeks after the start of the cultivation, the test plants were treated at the 2- to 3-leaf stage. The herbicides, formulated as powder or liquid concentrates, were, either alone or in the combinations according to the invention, sprayed in various dosages on to the green parts of the plants using an application rate of 600 l of water/ha (converted). For further cultivation of the plants, the pots were then again kept under optimum conditions in a greenhouse.
(§3) The visual scoring of the herbicidal effects was carried out in intervals up to 21 days after the treatment. Scoring was carried out in percent in comparison to the untreated control plants. 0%=no herbicidal activity, 100%=complete herbicidal activity=complete kill.
(§4) The percentages from the treatments with the herbicides alone (=individual application) and with the combinations according to the invention (=mixtures) were employed to calculate interactions using the method of Colby. When the observed efficacies of the mixtures exceed the formal sum of the values of the tests with individual applications, they also exceed the expected value according to Colby, which is calculated using the formula below (cf. S. R. Colby; in Weeds 15 (1967) pp. 20 to 22):
(§5) Here: • A, B=activity of components A and B in percent at a dosage of a and b g of ai/ha (=gramm of active substance per hectare), respectively. • E=expected value in % at a dosage of a+b g of ai/ha.
(§6) The combinations according to the invention of herbicides from group (A) with herbicides from group (B) were tested on a broad spectrum of important harmful plants (weed grasses, broad-leaved weeds/Cyperaceae) and useful plants: Triticum aestivum (TRZAS), Stellaria media (STEME), Lolium multiflorum (LOLMU), Veronica persica (VERPE), Alopecurus myosuroides (ALOMY), Matricaria inodora (MATIN), Brassica napus (BRSNW), Viola tricolor (VIOTR), Avena fatua (AVEFA), Amaranthus retroflexus (AMARE), Zea mays (ZEAMX), Pharbitis purpurea (PHBPU), Setaria viridis (SETVI), Fallopia (ex Polygonum) convolvulus (POLCO), Echinochloa crus-gaffi (ECHCG), Abuthilon theophrasti (ABUTH), Cyperus esculentus (CYPES), Oryza sativa (ORYSA).
(§7) Of particular interest are the results shown in the tables (Tab.) below, where the following key is used: • (1) EPPO code (former Bayer code) for the treated plant (see above) • (2) Time of scoring: DAT (days after treatment) • (3) Component A tested (identifying number) • (4) Component B tested (identifying number) • (5) Dosage component A [g of ai/ha] • (6) Dosage component B [g of ai/ha] • (7) % activity found • (8) E value (calculated according to Colby; see above) • (9) Comments: “SYNERGY”=synergistic interaction (E value <% activity found); “SAFENING”=safener action on useful plant (E value >% activity found)

[1] = system: Lolium multiflorum (LOLMU); assay: Post-emergence action against weeds, greenhouse pot test, Lolium multiflorum; conditions: read-out: % activity found; for inhibition at 200 g/ha: 200 g of ai/ha; for inhibition at 600 g/ha: 600 g of ai/ha
Protocol: as §1, §2, §3, §4, §5, §6, §7

Veronica persica (VERPE) = assay: Post-emergence action against weeds, greenhouse pot test, Veronica persica; conditions: read-out: % activity found; for inhibition at 4 g/ha: 4 g of ai/ha; for inhibition at 12 g/ha: 12 g of ai/ha
Protocol: as §1, §2, §3, §4, §5, §6, §7

[2] = system: Matricaria inodora (MATIN); assay: Post-emergence action against weeds, greenhouse pot test, Matricaria inodora; conditions: for inhibition at 200 g/ha: 200 g of ai/ha; for inhibition at 600 g/ha: 600 g of ai/ha; for (7) % activity found: MATIN
Protocol: as §1, §2, §3, §4, §5

Setaria viridis (SETVI) = assay: Post-emergence action against weeds, greenhouse pot test, Setaria viridis; conditions: 504 h, read-out: % activity found
Protocol: as §1, §2, §3, §4
(§8) Here: • A, B=activity of components A and B in percent at a dosage of a and b g of ai/ha (=gramm of active substance per hectare), respectively. • E=expected value in % at a dosage of a+b g of ai/ha. […]

[3] = system: Fallopia (ex Polygonum) convolvulus (POLCO); assay: Post-emergence action against weeds, greenhouse pot test, Fallopia convolvulus
Protocol: as §1, §2, §3, §4, §5, §6, §7

Viola tricolor (VIOTR) = assay: Post-emergence action against weeds, greenhouse pot test, Viola tricolor; conditions: for inhibition at 200 g/ha: 200 g of ai/ha
Protocol: as §1, §2, §3, §4, §5, §6, §7

[4] = system: Amaranthus retroflexus (AMARE); assay: Post-emergence action against weeds, greenhouse pot test, Amaranthus retroflexus; conditions: read-out: % activity found
Protocol: as §1, §2, §3, §4, §5, §6, §7

[5] = system: Cyperus esculentus (CYPES); assay: Post-emergence action against weeds, greenhouse pot test, Cyperus esculentus
Protocol: as §1, §2, §3, §4, §5

[6] = system: Triticum aestivum (TRZAS); assay: Post-emergence action against weeds, greenhouse pot test, Triticum aestivum; conditions: 240 h, read-out: % activity found
Protocol: as §1, §2, §3, §4, §8

[7] = Zea mays, post-emergence, 240 h, read-out: % activity found
[8] = Fallopia convolvulus, post-emergence, 504 h, read-out: % activity found
[9] = Tripleurospermum inodorum, post-emergence, 240 h, 10 DAT, read-out: % activity found
[10] = Tripleurospermum inodorum, post-emergence, 504 h, 21 DAT, read-out: % activity found

SMILES: CCS(=O)(=O)Oc1ccc2c(c1)C(C)(C)CO2 [B-9, 2,3-dihydro-3,3-dimethyl-5-benzofuranyl ethanesulfonate]
- inhibition at 100 g/ha (Zea mays (ZEAMX); [7]): 10%
- inhibition at 300 g/ha (Zea mays (ZEAMX); [7]): 20%
- inhibition at 300 g/ha (Zea mays (ZEAMX); Zea mays, post-emergence, 504 h, read-out: % activity found): 0%
- inhibition at 300 g/ha ([1]; 504 h): 0%
- inhibition at 100 g/ha (Veronica persica (VERPE); 504 h): 0%
- inhibition at 100 g/ha ([2]; Tripleurospermum inodorum, post-emergence, 504 h, read-out: % activity found): 50%
- inhibition at 100 g/ha (Setaria viridis (SETVI)): 40%
- inhibition at 100 g/ha [3, 8]: 0%
- inhibition at 300 g/ha [3, 8]: 30%

SMILES: CCOC1Oc2ccc(OS(C)(=O)=O)cc2C1(C)C (racemic) [B-49, (±)-2-ethoxy-2,3-dihydro-3,3-dimethyl-5-benzofuranyl methanesulfonate]
- inhibition at 200 g/ha (Zea mays (ZEAMX); Zea mays, post-emergence, 240 h, 10 DAT, read-out: % activity found): 30%
- inhibition at 600 g/ha (Zea mays (ZEAMX); Zea mays, post-emergence, 240 h, 10 DAT, 600 g of ai/ha, read-out: % activity found): 40%
- inhibition at 200 g/ha (Zea mays (ZEAMX); Zea mays, post-emergence, 504 h, 21 DAT, read-out: % activity found): 0%
- inhibition at 200 g/ha ([1]; 240 h, 10 DAT): 0%
- inhibition at 600 g/ha ([1]; 240 h, 10 DAT): 10%
- inhibition at 200 g/ha ([1]; 504 h, 21 DAT): 0%
- inhibition at 600 g/ha ([1]; 504 h, 21 DAT): 0%
- inhibition at 200 g/ha (Veronica persica (VERPE); 504 h, 21 DAT, 200 g of ai/ha): 20%
- inhibition at 200 g/ha [2, 9]: 0%
- inhibition at 600 g/ha [2, 9]: 0%
- inhibition at 200 g/ha [2, 10]: 20%
- inhibition at 600 g/ha [2, 10]: 30%
- inhibition at 200 g/ha ([3]; Fallopia convolvulus, post-emergence, 504 h, 21 DAT, 200 g of ai/ha, read-out: % activity found): 40%
- inhibition at 600 g/ha ([3]; Fallopia convolvulus, post-emergence, 504 h, 21 DAT, 600 g of ai/ha, read-out: % activity found): 50%
- inhibition at 200 g/ha (Viola tricolor (VIOTR); Viola tricolor, post-emergence, 240 h, 10 DAT, read-out: % activity found): 0%
- inhibition at 200 g/ha (Viola tricolor (VIOTR); Viola tricolor, post-emergence, 504 h, 21 DAT, read-out: % activity found): 0%
- inhibition at 600 g/ha (Viola tricolor (VIOTR); Viola tricolor, post-emergence, 504 h, 21 DAT, 600 g of ai/ha, read-out: % activity found): 0%
- inhibition at 200 g/ha ([4]; 504 h, 21 DAT, 200 g of ai/ha): 50%
- inhibition at 600 g/ha ([5]; Cyperus esculentus, post-emergence, 504 h, 21 DAT, 600 g of ai/ha, read-out: % activity found): 0%

SMILES: COc1nc(OC)nc(C(=O)c2cccc(F)c2N(C)S(=O)(=O)C(F)F)n1 [A-1]
- inhibition at 4 g/ha (Veronica persica (VERPE); 240 h, 10 DAT): 60%
- inhibition at 12 g/ha (Veronica persica (VERPE); 240 h, 10 DAT): 60%
- inhibition at 4 g/ha (Veronica persica (VERPE); 504 h, 21 DAT): 30%
- inhibition at 12 g/ha (Veronica persica (VERPE); 504 h, 21 DAT): 40%
- (7) % activity found ([2]; 21 DAT, A-1 alone, dose (5) 4): 50%
- (7) % activity found ([2]; 21 DAT, Table 65, A-1 alone, dose (5) 12): 60%
- inhibition at 4 g/ha ([2]; Tripleurospermum inodorum, post-emergence, 10/21 DAT, 4 g of ai/ha, read-out: % activity found): 50%
- % activity found ([3]; 21 DAT, 12 g of ai/ha): 75%
- inhibition at 4 g/ha (Viola tricolor (VIOTR); Viola tricolor, post-emergence, 240 h, 10 DAT, 4 g of ai/ha, read-out: % activity found): 20%
- inhibition at 4 g/ha ([4]; 240 h, 10 DAT, 4 g of ai/ha): 70%
- inhibition at 12 g/ha ([5]; Cyperus esculentus, post-emergence, 240 h, 10 DAT, 12 g of ai/ha, read-out: % activity found): 70%

SMILES: CNC1=C(c2cccc(C(F)(F)F)c2)C(=O)C(c2ccccc2)O1 (racemic) [B-61, (±)-5-(methylamino)-2-phenyl-4-[3-(trifluoromethyl)phenyl]-3(2H)-furanone]
- (7) % activity found (Zea mays (ZEAMX); ZEAMX, 21 DAT, B-61 alone, dose (6) 120): 50%
- inhibition at 40 g/ha (Zea mays (ZEAMX); [7]): 40%
- inhibition at 120 g/ha (Zea mays (ZEAMX); [7]): 50%
- inhibition at 40 g/ha ([1]; 240 h): 50%
- inhibition at 40 g/ha ([1]; 504 h): 40%
- (7) % activity found ([2]; 21 DAT, B-61 alone, dose (6) 40): 50%
- (7) % activity found ([2]; 21 DAT, B-61 alone, dose (6) 120): 50%
- (7) % activity found ([2]; 21 DAT, Table 65, B-61 alone, dose (6) 40): 50%
- (7) % activity found (Viola tricolor (VIOTR); VIOTR, 21 DAT, B-61 alone, dose (6) 120): 70%
- (7) % activity found ([5]; CYPES, 21 DAT, B-61 alone, dose (6) 40): 20%
- inhibition at 40 g/ha [6]: 30%
